This is an account of results in patent publication US20160051529A1, “PPAR-SPARING THIAZOLIDINEDIONES AND COMBINATIONS FOR THE TREATMENT OF NEURODEGENERATIVE AND OTHER METABOLIC DISEASES” (METABOLIC SOLUTIONS DEVELOPMENT COMPANY LLC, priority 2012, published 2016).

In general, IC50 refers to the point on the concentration scale where inhibition reaches its midpoint.

In test [1] the target is T1, human PPARγ ligand binding domain (LBD) (Homo sapiens, UniProt P37231).
T1 construct: purchased Invitrogen #4894
T1 sequence (P37231 238-503 limits assumed): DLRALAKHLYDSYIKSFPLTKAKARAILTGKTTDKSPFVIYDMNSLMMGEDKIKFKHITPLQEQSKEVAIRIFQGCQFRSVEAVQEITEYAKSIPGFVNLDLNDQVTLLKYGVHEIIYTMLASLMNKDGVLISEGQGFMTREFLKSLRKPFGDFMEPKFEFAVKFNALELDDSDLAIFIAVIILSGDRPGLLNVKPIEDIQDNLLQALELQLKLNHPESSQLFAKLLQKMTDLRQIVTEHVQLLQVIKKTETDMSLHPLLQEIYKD
Nature of the test: TR-FRET PPARγ competitive binding assay (Invitrogen LanthaScreen). As for the experimental part:
Whereas activation of the PPARγ receptor is generally believed to be a selection criteria to select for molecules that may have anti-diabetic and insulin sensitizing pharmacology, this invention finds that activation of this receptor should be a negative selection criterion. Molecules will be chosen from this chemical space because they have reduced, not just selective, activation of PPARγ. […] The assays are conducted by first evaluation of the direct interactions of the molecules with the ligand binding domain of PPARγ. This can be performed with a commercial interaction kit that measures the direct interaction by florescence using rosiglitazone as a positive control.
PPARγ binding is measured by a TR-FRET competitive binding assay using Invitrogen LanthaScreen™ TR-FRET PPARγ Competitive Binding Assay (Invitrogen #4894). This assay uses a terbium-labeled anti-GST antibody to label the GST tagged human PPARγ ligand binding domain (LBD). A fluorescent small molecule pan-PPAR ligand tracer binds to the LBD causing energy transfer from the antibody to the ligand resulting in a high TR-FRET ratio. Competition binding by PPARγ ligands displace the tracer from the LBD causing a lower FRET signal between the antibody and tracer. The TR-FRET ratio is determined by reading the fluorescence emission at 490 and 520 nm using a Synergy2 plate reader (BioTek). The ability of several exemplary compounds of the present invention to bind to PPARγ was also measured using a commercial binding assay (Invitrogen Corporation, Carlsbad, Calif.) that measures the test compounds ability to bind with PPAR-LBD/Fluormone PPAR Green complex. These assays were performed on three occasions with each assay using four separate wells (quadruplicate) at each concentration of tested compound. The data are mean and SEM of the values obtained from the three experiments. Rosiglitazone was used as the positive control in each experiment. Compounds were added at the concentrations shown, which ranged from 0.1-100 micromolar.
(In general: TR-FRET usually uses a lanthanide donor and a delayed reading to cut background.)

Test [2] can be described thus: Glucose, triglycerides and insulin, T/C normalized to vehicle. The class given is in vivo. As to conditions: normalized to vehicle activity.
A further test has as its system PGC-1α. Nature of the test: Expression of PGC-1α mRNA in precursor BAT cells with norepinephrine. The format is cell-based. Particulars: 3 μM compound for seven days, then 1 μM norepinephrine for 2 hours, quantitative PCR. Here is the method: Another example of the ability of augmented signaling between cyclic nucleotides and compounds of Formula I is shown by the effect on expression of PGC-1α, a known regulator of mitochondrial biogenesis. Increased numbers of mitochondria are predictive of utility for the reduction of body weight.
Precursor BAT cells were isolated as described above and treated with or without 3 μM compounds: 1.] Compound A: 5-(4-(2-(5-ethylpyridin-2-yl)-2-oxoethoxy)benzyl)-1,3-thiazolidine-2,4-dione; 2.] Compound B: 5-(4-(2R)-2-(5-ethylpyridin-2-yl)-2-hydroxyethoxyy)benzyl)-1,3-thiazolidine-2,4-dione; or 3.] Compound C: 5-(4-(2-(3-methoxyphenyl)-2-oxoethoxy)benzyl)-1,3-thiazolidine-2,4-dione for seven days followed by treatment with 1 μM norepinephrine for 2 hours. Total RNA was isolated from the cells and the RNA message (mRNA) for PGC-1α was measured by quantitative polymerase chain reactions.

The subject of another test is 5XFAD mice. Put plainly: Plaque pathology in hippocampus of 5XFAD mice. The class given is in vivo. As to conditions: chow delivering 390 mg/kg for 4 weeks. Here is the method: 5XFAD mice harbor 5 familial mutations (3 in the amyloid precursor protein; 2 in presenilin 1) and develop robust plaque pathology as early as 6 weeks. These mice were treated beginning at 2 months of age for a period of 4 weeks with control chow or chow containing Compound A to deliver 390 mg/kg for 4 weeks.
Referring to FIG. 7, […] stained plaques were counted in the hippocampus of the 5XFAD mice. […] Note that the plaques having less than 100 micron size were excluded from the graph, and those amounted to about 70% of all the plaques in both Control and Compound A treated groups.

Structures are written as SMILES.

`CCOC(Cc1ccc(OCC(=O)c2ccc(CC)cn2)cc1)C(=O)O` (stereo not drawn) [Compound 1]: in test [1], the IC50 came to 17.8 µM.
On the same count and under the same terms, then `COc1cccc(C(=O)COc2ccc(CC(=O)C(=O)O)cc2)c1` [Compound 10], with 111 µM.
Consider `CCO/C(=C\c1cccc(OCC(=O)c2cccc(OC)c2)c1)C(=O)O` [Compound 13], for which the half-maximal inhibitory concentration (IC50) in test [1] was determined as 21.8 µM. For the same compound, in test [2] (no dose given), the “Insulin (T/C)” value amounted to 0.81 T/C and the “Triglycerides (mean T/C)” value was 0.86 T/C.
As to `CCO/C(=C\c1ccc(OCC(=O)c2ccc(CC)cn2)cc1)C(=O)O` [Compound 14], the IC50 in test [1] turned out to be 96.1 µM.
Same read-out and setting: then `COc1cccc(C(=O)COc2cccc(O[C@H](C)C(=O)O)c2)c1` [Compound 15], with 100 µM.
On the same count and under the same terms, the result for `CCO/C(=C\c1ccc(OC/C(=N/OC)c2ccc(CC)cn2)cc1)C(=O)O` [Compound 17] reads 21 µM.
Turning to `CCOC(Cc1ccc(OC/C(=N/OC)c2ccc(CC)cn2)cc1)C(=O)O` (stereo not drawn) [Compound 18], the IC50 in test [1] came out at 62.2 µM.
As to `CCOC(Oc1ccc(OC[C@@H](O)c2ccc(CC)cn2)cc1)C(=O)O` (stereo partly drawn) [Compound 35], the half-maximal inhibitory concentration (IC50) in test [1] came to 0.3 µM. The “Insulin (T/C)” value is recorded as 0.20@7.5 T/C in test [2] (@7.5), 0.44@15 T/C in test [2] (@15) and 0.11@30 T/C in test [2] (@30). Moreover, the results for the “Triglycerides (mean T/C)” value in test [2] (@7.5), in test [2] (@15) and in test [2] (@30) were 0.32@7.5 T/C, 0.24@15 T/C and 0.17@30 T/C, respectively.
`CCOC(Oc1ccc(OC[C@H](O)c2ccc(CC)cn2)cc1)C(=O)O` (stereo partly drawn) [Compound 36]: the IC50 in test [1] was found to be 17.6 µM. Moreover, the “Triglycerides (mean T/C)” value in test [2] (@0.5) is recorded as 0.50@0.5 T/C; in test [2] (@7.5), 0.41@7.5 T/C; in test [2] (@30) it was 0.38@30 T/C. The “Insulin (T/C)” value was 0.26@7.5 T/C in test [2] (@7.5), 0.33@15 T/C in test [2] (@15) and 0.46@30 T/C in test [2] (@30).
On to `CCOC(Cc1ccc(OCC(=O)c2cccc(OC)c2)cc1)C(=O)O` (stereo not drawn) [Compound 47], for which the 50% inhibitory concentration (IC50) in test [1] stood at 6.07 µM. In test [2] (no dose given), the “Insulin (T/C)” value stood at 0.26 T/C and the “Triglycerides (mean T/C)” value stood at 0.33 T/C.
Consider `CCOC(Cc1ccc(OCC(=NO)c2cccc(OC)c2)cc1)C(=O)O` (stereo not drawn) [Compound 48], for which, in test [1], the IC50 was 14.7 µM.
As to `CCOC(Cc1ccc(OC[C@@H](F)c2cccc(OC)c2)cc1)C(=O)O` (stereo partly drawn) [Compound 50], the IC50 in test [1] is 157 µM.
On the same count and under the same terms, then `COc1cccc(C(=O)COc2ccc(C[C@@H](O)C(=O)O)cc2)c1` [Compound 53], with more than 263 µM.
On the same count and under the same terms, the result for `CCO[C@@H](Cc1ccc(OC[C@@H](NC(=O)OC(C)(C)C)c2ccccc2)cc1)C(=O)O` [Compound 55] reads 18.9 µM; that for `CCO[C@@H](Cc1ccc(OC[C@@H](NC(C)=O)c2ccccc2)cc1)C(=O)O` [Compound 56], 33.7 µM; that for `CCO[C@@H](Cc1ccc(OC[C@@H](N)c2ccccc2)cc1)C(=O)O` [Compound 57], 39.7 µM.
`CCO[C@@H](Cc1ccc(OC[C@@H](NC=O)c2ccccc2)cc1)C(=O)O` [Compound 58]: in test [1], the IC50 amounted to 12.3 µM.
On the same count and under the same terms, then `CCO[C@@H](Cc1ccc(OC[C@H](NC=O)c2ccccc2)cc1)C(=O)O` [Compound 59], with more than 250 µM; and `CCO[C@@H](Cc1ccc(OC[C@H](NS(C)(=O)=O)c2ccccc2)cc1)C(=O)O` [Compound 60], with 80.3 µM.
Regarding `CCOC(=O)[C@H](Cc1ccc(OC[C@@H](NC(=O)OC(C)(C)C)c2ccccc2)cc1)OCC` [Compound 61], the IC50 in test [1] came to 14.1 µM.
Same read-out and setting: then `CCOC(=O)[C@H](Cc1ccc(OC[C@@H](N)c2ccccc2)cc1)OCC` [Compound 62], with 84.8 µM.
Regarding `CCc1ccc(C(=O)COc2ccc(CC3SC(=O)NC3=O)cc2)nc1` (stereo not drawn) [Compound A, 5-(4-(2-(5-ethylpyridin-2-yl)-2-oxoethoxy)benzyl)-1,3-thiazolidine-2,4-dione], in the test on PGC-1α, the “PGC-1α mRNA (message)” value is “an increase in PGC-1α message was observed”. Further, the “plaques having less than 100 micron size, share of all the plaques” value in the test on 5XFAD mice (same in the control group) is listed as “about 70%”. In the test on 5XFAD mice (versus control chow), the “size and number of thioflavin stained plaques in the hippocampus” value is “less than the control group”.
Regarding `CCc1ccc([C@@H](O)COc2ccc(CC3SC(=O)NC3=O)cc2)nc1` (stereo partly drawn) [Compound B], the “PGC-1α mRNA (message)” value in the test with PGC-1α is listed as “an increase in PGC-1α message was observed”.
Consider `COc1cccc(C(=O)COc2ccc(CC3SC(=O)NC3=O)cc2)c1` (stereo not drawn) [Compound C, 5-(4-(2-(3-methoxyphenyl)-2-oxoethoxy)benzyl)-1,3-thiazolidine-2,4-dione], for which the “PGC-1α mRNA (message)” value in the test with PGC-1α is “an increase in PGC-1α message was observed”.
